According to patent US6436630B1, “Method for testing the toxicity of chemical substances using gastropods” (priority 1998, dated 2002):
Where a name gives a salt, the structure may show the parent alone.

Experiments:
Assay type in all cases: in vivo
[1] = system: foot mucosa of slugs of the species Arion; test: Slug mucosal toxicity test of local anaesthetics, Example 4; conditions: in vivo; for % MP, mucus production as % of the body weight at the start of the day before the treatment / Total protein release into PBS: Arion (slug)
Experimental: The following local anaesthetics were used as test substance: procaine HCl, lidocaine HCl, prilocaine HCl, tetracaine HCl and bupivacaine HCl. All test substances were prepared in PBS (pH 7.4) at 1% w/v concentrations. The slugs were daily incubate during 15 min with the test solution during five days. After the incubation period the slugs were placed on 1 ml PBS in a petri dish. The PBS was sampled every hour and refreshed with 1 ml PBS for 3 hours after the treatment.
The total protein released into the PBS was determined.

[2] = system: foot mucosa of slugs of species Arion; conditions: in vivo
[3] = system: foot mucosa of slugs of species Limax; conditions: in vivo
Experimental: Slugs of the species Limax are terrestial slugs have lungs and also a small internal shell. As test substances hydroxypropyl-β-cyclodextrin (HPβCD), sodium tauro-24,25-dihdrofiisidate (STDHF) and sodium deoxycholate were selected. Benzalkonium chloride (1% w/v), HPβCD (5% w/v), STDHF (1% w/v) and SDC (1% w/v) were prepared in phosphate buffered saline (PBS, pH 7.4).
The enzymes lactate dehydrogenase (LDH) and alkaline phosphatase (ALP) and total protein released into the PBS were determined. The change in body weight and mucus production caused by the treatment were examined.

## CCCCN1CCCCC1C(=O)Nc1c(C)cccc1C (centres unmarked) [Bupivacaine HCl, bupivacaine HCl]
[1]; 1 day
  % MP, mucus production as % of the body weight at the start of the day before the treatment: 7.24%
  Total protein release into PBS: 755 µg/mL
[1]; 2 day
  % MP, mucus production as % of the body weight at the start of the day before the treatment: 5.22%
  Total protein release into PBS: 464 µg/mL
[1]; 3 day
  % MP, mucus production as % of the body weight at the start of the day before the treatment: 2.74%
  Total protein release into PBS: 277 µg/mL
[1]; 4 day
  % MP, mucus production as % of the body weight at the start of the day before the treatment: 1.64%
  Total protein release into PBS: 159 µg/mL
[1]; 5 day
  % MP, mucus production as % of the body weight at the start of the day before the treatment: 1.34%
  Total protein release into PBS: 313 µg/mL
[1]
  mucus production (in words): increased mucus production
  protein release (in words): increased protein release

## hydroxypropyl-β-cyclodextrin [HPβCD]
[2]
  % MP, mucus production: 0%
  mucus production (in words): no mucus production
  protein and enzyme release (in words): low protein and enzyme release
  ranking order of increasing toxicity: PBS, 5% HPβCD<1% STDHF<1% SDC and 1% BAC
[3]
  mucus production (in words): no mucus production
  protein and enzyme release (in words): low protein and enzyme release
  ranking order of increasing toxicity: PBS, 5% HPβCD<1% STDHF<1% SDC and 1% BAC

## CCCNC(C)C(=O)Nc1ccccc1C (centres unmarked) [Prilocaine HCl, prilocaine HCl]
[1]; 1 day
  % MP, mucus production as % of the body weight at the start of the day before the treatment: 0%
  Total protein release into PBS: 139 µg/mL
[1]; 2 day
  % MP, mucus production as % of the body weight at the start of the day before the treatment: 0%
  Total protein release into PBS: 62 µg/mL
[1]; 3 day
  % MP, mucus production as % of the body weight at the start of the day before the treatment: 0%
  Total protein release into PBS: 72 µg/mL
[1]; 4 day
  % MP, mucus production as % of the body weight at the start of the day before the treatment: 0%
  Total protein release into PBS: 65 µg/mL
[1]; 5 day
  % MP, mucus production as % of the body weight at the start of the day before the treatment: 0%
  Total protein release into PBS: 82 µg/mL

## CCCCNc1ccc(C(=O)OCCN(C)C)cc1 [Tetracaine HCl, tetracaine HCl]
[1]; 1 day
  % MP, mucus production as % of the body weight at the start of the day before the treatment: 3.45%
  Total protein release into PBS: 413 µg/mL
[1]; 2 day
  % MP, mucus production as % of the body weight at the start of the day before the treatment: 2.48%
  Total protein release into PBS: 130 µg/mL
[1]; 3 day
  % MP, mucus production as % of the body weight at the start of the day before the treatment: 1.15%
  Total protein release into PBS: 120 µg/mL
[1]; 4 day
  % MP, mucus production as % of the body weight at the start of the day before the treatment: 1.29%
  Total protein release into PBS: 128 µg/mL
[1]; 5 day
  % MP, mucus production as % of the body weight at the start of the day before the treatment: 0.65%
  Total protein release into PBS: 149 µg/mL
[1]
  mucus production (in words): increased mucus production
  protein release (in words): increased protein release
